T1: CYP79B2 (Arabidopsis thaliana, UniProt O81346)
T1 sequence (O81346 1-541): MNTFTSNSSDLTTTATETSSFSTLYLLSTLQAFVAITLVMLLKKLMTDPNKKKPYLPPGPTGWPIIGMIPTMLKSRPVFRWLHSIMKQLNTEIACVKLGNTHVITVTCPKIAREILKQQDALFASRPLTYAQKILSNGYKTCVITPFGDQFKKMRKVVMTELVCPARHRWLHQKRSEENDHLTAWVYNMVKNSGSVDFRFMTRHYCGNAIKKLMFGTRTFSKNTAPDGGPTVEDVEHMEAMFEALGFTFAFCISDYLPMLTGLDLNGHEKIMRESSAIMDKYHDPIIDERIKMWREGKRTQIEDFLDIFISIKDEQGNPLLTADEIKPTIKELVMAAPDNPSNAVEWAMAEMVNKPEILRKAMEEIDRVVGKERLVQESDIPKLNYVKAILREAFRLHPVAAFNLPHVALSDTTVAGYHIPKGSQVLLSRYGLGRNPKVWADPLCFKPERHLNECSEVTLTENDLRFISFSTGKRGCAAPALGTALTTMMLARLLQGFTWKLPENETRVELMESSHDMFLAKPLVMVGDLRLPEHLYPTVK

T2: CYP79A2 (Arabidopsis thaliana, UniProt Q9FLC8)
T2 sequence (Q9FLC8 7-529 limits assumed): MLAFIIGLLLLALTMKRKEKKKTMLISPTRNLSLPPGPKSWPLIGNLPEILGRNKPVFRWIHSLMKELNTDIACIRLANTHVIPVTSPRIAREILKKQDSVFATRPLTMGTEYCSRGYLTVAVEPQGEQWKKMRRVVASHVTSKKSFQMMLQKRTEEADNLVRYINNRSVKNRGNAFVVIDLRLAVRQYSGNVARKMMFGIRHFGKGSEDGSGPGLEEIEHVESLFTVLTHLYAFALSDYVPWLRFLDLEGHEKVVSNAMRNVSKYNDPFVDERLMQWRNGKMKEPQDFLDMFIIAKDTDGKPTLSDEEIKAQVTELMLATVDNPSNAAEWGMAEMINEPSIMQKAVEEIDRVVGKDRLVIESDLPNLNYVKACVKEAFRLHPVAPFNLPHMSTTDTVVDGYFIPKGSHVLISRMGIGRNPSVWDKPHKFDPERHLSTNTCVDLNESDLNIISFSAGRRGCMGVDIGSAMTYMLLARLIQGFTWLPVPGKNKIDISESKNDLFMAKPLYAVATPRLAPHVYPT

B1: CYP79B2 (Arabidopsis thaliana) (protein)
chain: T1 sequence (O81346 1-541)

Key:
CYP79B2 = biological target: T1, CYP79B2; experiment: CYP79B2 activity in E. coli spheroplasts reconstituted with NADPH:cytochrome P450 reductase
Description: The activity of CYP79B2 is measured by reconstituting spheroplasts from E. coli expressing CYP79B2 with purified NADPH:cytochrome P450 reductase from Sorghum bicolor (L.) Moench. […] The reaction is incubated at 34° C. for 30 minutes, extracted two times with ethyl acetate and the ethyl acetate phase is analyzed by TLC using toluen:ethyl acetate 5:1 as eluent. Radiolabelled bands are visualized on a Storm 840 phosphorimager (Molecular Dynamics) and quantified with ImageQuant analysis software (Molecular Dynamics). Substrate specificity is investigated by substituting the ^14C-labelled tryptophan with ^14C-labelled tyrosine or phenylalanine. GC-MS is employed to verify the structure of the compound produced from tryptophan by recombinant CYP79B2. A 450 μl reaction mixture as described above containing 2 mM unlabelled tryptophan is incubated at 34° C. for 2 hours. The reaction mixture is extracted twice with 300 μl CHCl3 and lyophilized until dryness. GC-MS is performed with an HP5890 Series II gas chromatograph coupled to a Jeol JMS-AX505W mass spectrometer. Splitless injection on an SGE column (BPX5, 25 mm×0.25 mm, 0.25 μm film thickness) and a head pressure of 100 kPa are used.
Single colonies are grown overnight at 37° C. in LB medium containing 100 μg/ml ampicillin. 1 ml of the overnight culture is used to inoculate 75 ml TB medium containing 100 μg/ml ampicillin, 75 μg/ml δ-aminolevulinic acid, 1 mM thiamine and 1 mM IPTG. The TB cultures are grown for 44 hours at 125 rpm and 28° C.

CYP79F1 = CYP79F1 (Arabidopsis thaliana, UniProt Q949U1, M2A); details: E. coli C43(DE3) spheroplasts, GC-MS or TLC
Sequence of CYP79F1 (Q949U1 whole entry M2A): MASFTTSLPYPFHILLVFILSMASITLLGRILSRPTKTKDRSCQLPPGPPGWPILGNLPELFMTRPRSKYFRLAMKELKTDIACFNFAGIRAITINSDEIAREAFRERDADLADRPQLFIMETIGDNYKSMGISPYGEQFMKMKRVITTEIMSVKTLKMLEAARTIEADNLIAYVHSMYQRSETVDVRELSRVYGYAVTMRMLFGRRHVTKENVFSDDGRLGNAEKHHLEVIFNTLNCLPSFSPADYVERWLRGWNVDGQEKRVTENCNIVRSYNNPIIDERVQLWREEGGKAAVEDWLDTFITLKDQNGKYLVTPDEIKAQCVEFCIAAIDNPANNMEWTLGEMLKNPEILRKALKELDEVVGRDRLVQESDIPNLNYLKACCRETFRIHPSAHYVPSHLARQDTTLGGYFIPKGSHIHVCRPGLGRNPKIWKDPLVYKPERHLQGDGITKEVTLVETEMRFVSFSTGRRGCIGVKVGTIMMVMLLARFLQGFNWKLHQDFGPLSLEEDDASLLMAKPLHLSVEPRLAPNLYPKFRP
Description: In a typical enzyme assay, 5 μl spheroplasts and 4 μl NADPH:cytochrome P450 reductase (equivalent to 0.04 units defined as 1 μmol cytochrome c/min) are incubated with substrate in buffer containing 30 mM KPi, pH 7.5, 3 mM NADPH, 3 mM reduced glutathione, 0.042% Tween 80, 1 mg ml^−1 L-α-dilauroylphosphatidylcholine in a total volume of 30 μl. Reaction mixtures containing spheroplasts of E. coli C43(DE3) transformed with empty vector are used as controls in all assays. 3.3 μM L-[U-^14C]phenylalanine (453 mCi/mmol; Pharmacia), 3.7 μM L-[U-^14C]tyrosine (449 mCi/mmol; Pharmacia), 0.1 mM L-[methyl-^14C]methionine (56 mCi/mmol; Pharmacia), and 24 μM L-[side chain-3-^14C]tryptophan (56.5 mCi/mmol; NEN) are tested as potential substrates. After incubation at 28° C. for 1 hour, half of the reaction mixture is analyzed by TLC on Silica Gel 60 F254 sheets (Merck) using toluene/ethyl acetate 5:1 (v/v) as eluent. Radiolabelled bands are visualized and quantified using a STORM 840 phosphoimager (Pharmacia). For GC-MS analysis, 450 μl reaction mixture containing 3.3 mM L-methionine (Sigma), 3.3 mM DL-dihomomethionine or 3.3 mM DL-trihomomethionine, respectively, are incubated for 4 hours at 25° C. and extracted with a total volume of 600 μl CHCl3. The organic phase is collected, evaporated, and the residue is dissolved in 15 μl CHCl3 and analyzed by GC-MS. […] An SGE column (BPX5, 25 m×0.25 mm, 0.25 μm film thickness) is used (heat pressure 100 kPa, splitless injection). The oven temperature program is as follows: 80° C. for 3 minutes, 80° C. to 180° C. at 5° C. min^−1, 180° C. to 300° C. at 20° C. min^−1, and 300° C. for 10 min. The ion source is run in EI mode (70 eV) at 200° C. […] DL-dihomomethionine, DL-trihomomethionine, 5-methylthiopentanaldoxime and 6-methylthiohexanaldoxime are synthesized as described (Dawson et al, J. Biol. Chem. 268: 27154-27159, 1993) and authenticated by NMR spectroscopy.

[1] = Non-enzymatic conversion of tryptophan under oxidative conditions; details: 100 mM H2O2, 1 mM MnCl2, 800 μM 2,4-dichlorophenol in 50 mM Tricine buffer, pH 8.0, no enzyme
CYP79A2 = biological target: T2, CYP79A2; experiment: CYP79A2 activity in E. coli spheroplasts reconstituted with NADPH:cytochrome P450 oxidoreductase
[2] = substrate: N[C@@H](Cc1c[nH]c2ccccc12)C(=O)O; experiment: purified protein, by the assay type; details: other: native CYP79B2 construct; pH 7.9

Molecule | Vmax (CYP79B2; native CYP79B2 construct) [pmol/h/μl spheroplast] | oxime production by CYP79B2 (CYP79B2; radiolabelled amino acid, TLC) | formation of the corresponding aldoxime by CYP79F1 (CYP79F1) | conversion rate to compound co-migrating with IAOX relative to CYP79B2 [1] | production of the respective aldoxime by CYP79A2 (CYP79A2) | Km [2] [µM]
N[C@@H](Cc1c[nH]c2ccccc12)C(=O)O [L-tryptophan] | 97.2 | production of a strong band that co-migrates with authentic IAOX standard | did not result in the formation of detectable amounts of the corresponding aldoximes | approximately 0.7% | does not result in production of detectable amounts of the respective aldoximes | 
B1 |  |  |  |  |  | 21

— patent US20030166202A1, “P450 Monooxygenases of the cyp79 family” (priority 2000, published 2003)
